In patent US20250129104A1, “7H-PYRROLO[2,3-D]PYRIMIDINES AND PREPARATION AND USES THEREOF” (BioSplice Therapeutics, Inc., priority 2021, published 2025):

Molecular target: recombinant DYRK1A kinase (Homo sapiens (Human), UniProt Q13627)
Assay: DYRK1A kinase assay (Ser/Thr 18 peptide Z-lyte FRET assay)
Type: biochemical
Settings: DYRK1A kinase activity; 15 μM ATP, 1 h room temperature; method text calls the value IC50
Description: Representative compounds were screened using the assay procedure for DYRK1A kinase activity as described below.
Each compound was dissolved in DMSO as a 10 mM stock and used to prepare compound source plates. Serial dilution (1:3, 11-point dose-response curves from 10 μM to 0.00016 μM) and compound transfer was performed using the ECHO 550 (Labcyte, Sunnyvale, CA) into 1536-well black-walled round bottom plates (Corning).
The DYRK1A kinase assay was run using the Ser/Thr 18 peptide Z-lyte assay kit according to manufacturer's instructions (Life Technologies—a Division of Thermo-Fisher). This is a non-radioactive assay using fluorescence resonance energy transfer (FRET) between coumarin and fluorescein to detect kinase activity which is represented as a ratio of coumarin emission/fluorescein emission.
Briefly, recombinant DYRK1A kinase, ATP and Ser/Thr peptide 18 were prepared in 1× Kinase buffer to final concentrations of 0.25 μg/mL, 15 μM, and 4 μM respectively. The mixture was allowed to incubate with the representative compounds for one hour at room temperature. All reactions were performed in duplicate. Unphosphorylated (“0% Control”) and phosphorylated (“100% control”) forms of Ser/Thr 18 served as control reactions. Additionally, an 11-point dose-response curve of Staurosporine (1 uM top) was run to serve as a positive compound control.
After incubation, Development Reagent A was diluted in Development Buffer then added to the reaction and allowed to further incubate for one hour at room temperature. The plate was read at Ex 400 Em […] to detect the coumarin signal and Ex 400 Em 520 to measure the signal (EnVision Multilabel Plate Reader, PerkinElmer).
The Emission ratio (Em) was calculated as a ratio of the coumarin (C) emission signal (at 445 nm)/Fluorescein (F) emission signal (at 520 nm). The percent phosphorylation was then calculated using the following formula: [1−((Em ratio×F100%)−C100%)/((C0%−C100%)+(Em ratio×(F100%−F0%)))]. Dose-response curves were generated, and inhibitory concentration (IC50) values were calculated using non-linear regression curve fit in the Dotmatics' Studies Software (Bishops Stortford, UK).

Row | Molecule | EC50
1 | 4-Methoxy-N-(cis-4-methoxycyclohexyl)-5-(1-methyl-1H-benzo[d][1,2,3]triazol-6-yl)-7H-pyrrolo[2,3-d]pyrimidin-2-amine [Compound 3114] | 1.2 nM
2 | 5-(1-(2,2-Difluoroethyl)-1H-benzo[d][1,2,3]triazol-6-yl)-4-methoxy-N-(cis-4-(trifluoromethoxy)cyclohexyl)-7H-pyrrolo[2,3-d]pyrimidin-2-amine [Compound 2297] | 458 nM
3 | 5-(1-(2,2-Difluoroethyl)-1H-benzo[d][1,2,3]triazol-6-yl)-N-(2-fluoro-2-methylpropyl)-4-methoxy-7H-pyrrolo[2,3-d]pyrimidin-2-amine [Compound 2292] | 17.4 nM
4 | 5-(1-(2,2-Difluoroethyl)-1H-benzo[d][1,2,3]triazol-6-yl)-N-(cis-4-(difluoromethoxy)cyclohexyl)-4-methoxy-7H-pyrrolo[2,3-d]pyrimidin-2-amine [Compound 2296] | 103 nM
5 | 5-(2-Cyclopropyl-7H-pyrrolo[2,3-d]pyrimidin-5-yl)-N-methyl-N-(tetrahydro-2H-pyran-4-yl)pyrazolo[1,5-a]pyridine-3-carboxamide [Compound 1552] | 194 nM
6 | 5-(3-Chloropyrazolo[1,5-a]pyrimidin-5-yl)-N-(2-fluoro-2-methylpropyl)-7H-pyrrolo[2,3-d]pyrimidin-2-amine [Compound 1680] | 26.1 nM
7 | 5-(Imidazo[1,2-a]pyrazin-6-yl)-7H-pyrrolo[2,3-d]pyrimidine [Compound 491] | 15.5 nM
8 | COc1ccc(-c2c[nH]c3nc(NCC(C)(C)F)ncc23)cc1 [Compound 1, N-(2-Fluoro-2-methylpropyl)-5-(4-methoxyphenyl)-7H-pyrrolo[2,3-d]pyrimidin-2-amine] | 236 nM
9 | COc1ccc(-c2c[nH]c3nc(NC4CCN(S(C)(=O)=O)CC4)ncc23)c(OC)c1 [Compound 2, 5-(2,4-Dimethoxyphenyl)-N-(1-(methylsulfonyl)piperidin-4-yl)-7H-pyrrolo [2,3-d]pyrimidin-2-amine] | 43.8 nM
10 | Cn1cc(-c2c[nH]c3nc(NCC(C)(C)F)ncc23)ccc1=O [Compound 3, 5-(2-((2-Fluoro-2-methylpropyl)amino)-7H-pyrrolo[2,3-d]pyrimidin-5-yl)-1-methylpyridin-2(1H)-one] | 22.1 nM
11 | Cn1cc(-c2c[nH]c3nc(NC4CCC(F)(F)CC4)ncc23)ccc1=O [Compound 4, 5-(2-((4,4-Difluorocyclohexyl)amino)-7H-pyrrolo[2,3-d]pyrimidin-5-yl)-1-methylpyridin-2(1H)-one] | 411 nM
12 | CC(C)(F)CNc1ncc2c(-c3ccc(C(F)F)nc3)c[nH]c2n1 [Compound 5, 5-(6-(Difluoromethyl)pyridin-3-yl)-N-(2-fluoro-2-methylpropyl)-7H-pyrrolo [2,3-d]pyrimidin-2-amine] | 1400 nM
13 | COc1ccc(-c2c[nH]c3nc(NCC(C)(C)F)ncc23)cn1 [Compound 6, N-(2-Fluoro-2-methylpropyl)-5-(6-methoxypyridin-3-yl)-7H-pyrrolo[2,3-d]pyrimidin-2-amine] | 33.9 nM
14 | CC(C)(F)CNc1ncc2c(-c3ccc(OC(F)F)nc3)c[nH]c2n1 [Compound 7] | > 10000 nM
15 | COc1ccc(-c2c[nH]c3ncnc(N[C@H]4CC[C@H](N5CCOCC5)CC4)c23)cn1 [Compound 8, 5-(6-Methoxypyridin-3-yl)-N-(trans-4-morpholinocyclohexyl)-7H-pyrrolo [2,3-d]pyrimidin-4-amine] | 768 nM
16 | COc1ncc(-c2c[nH]c3nc(NCC(C)(C)F)ncc23)cn1 [Compound 9, N-(2-Fluoro-2-methylpropyl)-5-(2-methoxypyrimidin-5-yl)-7H-pyrrolo[2,3-d]pyrimidin-2-amine] | 778 nM
17 | CN1CCN(c2ccc(CNc3ncc4c(-c5ccc6c(c5)CNC6=O)c[nH]c4n3)cn2)CC1 [Compound 10, 5-(2-(((6-(4-Methylpiperazin-1-yl)pyridin-3-yl)methyl)amino)-7H-pyrrolo [2,3-d]pyrimidin-5-yl)isoindolin-1-one] | 96.8 nM
18 | Cc1nc2ccc(-c3c[nH]c4nc(NCC(C)(C)F)ncc34)nc2s1 [Compound 54, N-(2-Fluoro-2-methylpropyl)-5-(2-methylthiazolo[5,4-b]pyridin-5-yl)-7H-pyrrolo[2,3-d]pyrimidin-2-amine] | 671 nM

Row | Molecule | EC50
19 | CN1CCN(c2ccc(Nc3ncc4c(-c5cc6cnccc6s5)c[nH]c4n3)cn2)CC1 [Compound 93, N-(6-(4-Methylpiperazin-1-yl)pyridin-3-yl)-5-(thieno[3,2-c]pyridin-2-yl)-7H-pyrrolo[2,3-d]pyrimidin-2-amine] | 6.4 nM
20 | c1cnc2sc(-c3c[nH]c4ncncc34)nc2c1 [Compound 98, 2-(7H-Pyrrolo[2,3-d]pyrimidin-5-yl)thiazolo[5,4-b]pyridine] | 22.1 nM
21 | CCNc1ncc2c(-c3ccc4nccn4c3)c[nH]c2n1 [Compound 107, N-Ethyl-5-(imidazo[1,2-a]pyridin-6-yl)-7H-pyrrolo[2,3-d]pyrimidin-2-amine] | 1.6 nM
22 | FC(F)(F)CNc1ncc2c(-c3ccc4nccn4c3)c[nH]c2n1 [Compound 114, 5-(Imidazo[1,2-a]pyridin-6-yl)-N-(2,2,2-trifluoroethyl)-7H-pyrrolo[2,3-d]pyrimidin-2-amine] | 4.6 nM
23 | Fc1cnc2ccc(-c3c[nH]c4nc(C5CC5)ncc34)cn12 [Compound 145, 2-Cyclopropyl-5-(3-fluoroimidazo[1,2-a]pyridin-6-yl)-7H-pyrrolo[2,3-d]pyrimidine] | 94.3 nM
24 | C[C@@H](Nc1ncc2c(-c3ccc4ncc(F)n4c3)c[nH]c2n1)C(F)(F)F [Compound 158, (R)-5-(3-Fluoroimidazo[1,2-a]pyridin-6-yl)-N-(1,1,1-trifluoropropan-2-yl)-7H-pyrrolo[2,3-d]pyrimidin-2-amine] | 5.5 nM
25 | CC(C)CNc1ncc2c(-c3cc(F)c4nccn4c3)c[nH]c2n1 [Compound 196, 5-(8-Fluoroimidazo[1,2-a]pyridin-6-yl)-N-isobutyl-7H-pyrrolo[2,3-d]pyrimidin-2-amine] | 60.5 nM
26 | CC(C)(C)CNc1ncc2c(-c3cc(F)c4nccn4c3)c[nH]c2n1 [Compound 197, 5-(8-Fluoroimidazo[1,2-a]pyridin-6-yl)-N-neopentyl-7H-pyrrolo[2,3-d]pyrimidin-2-amine] | 75.4 nM
27 | Fc1cc(-c2c[nH]c3nc(NCCC(F)(F)F)ncc23)cn2ccnc12 [Compound 204, 5-(8-Fluoroimidazo[1,2-a]pyridin-6-yl)-N-(3,3,3-trifluoropropyl)-7H-pyrrolo [2,3-d]pyrimidin-2-amine] | 6.6 nM
28 | Fc1cc(-c2c[nH]c3nc(NCC4CC4)ncc23)cn2ccnc12 [Compound 207, N-(Cyclopropylmethyl)-5-(8-fluoroimidazo[1,2-a]pyridin-6-yl)-7H-pyrrolo [2,3-d]pyrimidin-2-amine] | 27.4 nM
29 | CO[C@H]1CC[C@@H](Nc2ncc3c(-c4cc(F)c5nccn5c4)c[nH]c3n2)CC1 [Compound 216, 5-(8-Fluoroimidazo[1,2-a]pyridin-6-yl)-N-(cis-4-methoxycyclohexyl)-7H-pyrrolo[2,3-d]pyrimidin-2-amine] | 14.9 nM
30 | CN1CCC(Nc2ncc3c(-c4cc(F)c5nccn5c4)c[nH]c3n2)CC1 [Compound 219, 5-(8-Fluoroimidazo[1,2-a]pyridin-6-yl)-N-(1-methylpiperidin-4-yl)-7H-pyrrolo[2,3-d]pyrimidin-2-amine] | 5.5 nM
31 | Fc1cc(-c2c[nH]c3nc(NC4CCOCC4)ncc23)cn2ccnc12 [Compound 221, 5-(8-Fluoroimidazo[1,2-a]pyridin-6-yl)-N-(tetrahydro-2H-pyran-4-yl)-7H-pyrrolo[2,3-d]pyrimidin-2-amine] | 23 nM
32 | Cc1cn2cc(-c3c[nH]c4nc(C5CC5)ncc34)cc(F)c2n1 [Compound 233, 2-Cyclopropyl-5-(8-fluoro-2-methylimidazo[1,2-a]pyridin-6-yl)-7H-pyrrolo [2,3-d]pyrimidine] | 268 nM
33 | Cc1cn2cc(-c3c[nH]c4nc(NC5CCC(F)(F)CC5)ncc34)cc(F)c2n1 [Compound 258, N-(4,4-Difluorocyclohexyl)-5-(8-fluoro-2-methylimidazo[1,2-a]pyridin-6-yl)-7H-pyrrolo[2,3-d]pyrimidin-2-amine] | 45.3 nM
34 | CCOc1ncc2c(-c3cc(F)c4ncc(C)n4c3)c[nH]c2n1 [Compound 293, 2-Ethoxy-5-(8-fluoro-3-methylimidazo[1,2-a]pyridin-6-yl)-7H-pyrrolo[2,3-d]pyrimidine] | 93.6 nM
35 | Fc1cc(-c2c[nH]c3nc(C4CC4)ncc23)cn2c(C(F)F)cnc12 [Compound 359, 2-Cyclopropyl-5-(3-(difluoromethyl)-8-fluoroimidazo[1,2-a]pyridin-6-yl)-7H-pyrrolo[2,3-d]pyrimidine] | 115 nM
